For 26 compounds, GI50 results are on record in patent publication US20250017914A1, “6-AZA-QUINOLINE DERIVATIVES AND RELATED USES” (Black Diamond Therapeutics, Inc., priority 2021, published 2025).

For orientation: GI50 means the concentration giving 50% growth inhibition. Read a high GI50 as less potent growth inhibition.

The structures appear in SMILES notation.

T1 sequence (P15056 whole entry, change not shown, the tested form may be a part): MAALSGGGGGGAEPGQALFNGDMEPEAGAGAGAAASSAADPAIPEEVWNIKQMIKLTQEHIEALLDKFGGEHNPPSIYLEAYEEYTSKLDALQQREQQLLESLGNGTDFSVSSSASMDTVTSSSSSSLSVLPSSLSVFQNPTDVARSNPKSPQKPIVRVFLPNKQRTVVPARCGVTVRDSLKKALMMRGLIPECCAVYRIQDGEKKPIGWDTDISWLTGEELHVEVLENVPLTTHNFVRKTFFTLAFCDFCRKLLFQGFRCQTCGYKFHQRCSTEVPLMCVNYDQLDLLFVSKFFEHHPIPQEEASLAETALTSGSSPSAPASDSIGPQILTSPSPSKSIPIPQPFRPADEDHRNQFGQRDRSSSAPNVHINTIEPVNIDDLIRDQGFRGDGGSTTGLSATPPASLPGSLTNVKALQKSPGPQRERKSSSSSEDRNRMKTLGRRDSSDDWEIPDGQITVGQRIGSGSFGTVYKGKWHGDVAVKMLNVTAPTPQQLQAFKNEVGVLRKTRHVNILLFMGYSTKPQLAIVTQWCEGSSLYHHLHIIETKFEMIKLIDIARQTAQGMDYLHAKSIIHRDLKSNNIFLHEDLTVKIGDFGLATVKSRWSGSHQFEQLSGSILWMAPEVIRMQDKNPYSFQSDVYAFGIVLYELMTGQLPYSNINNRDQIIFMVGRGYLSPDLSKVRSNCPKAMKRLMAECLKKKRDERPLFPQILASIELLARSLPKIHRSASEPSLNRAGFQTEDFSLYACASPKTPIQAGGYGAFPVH

This assay addresses T1, BaF3 BRAF-KIAA1549 fusion cells (Homo sapiens, UniProt P15056).
T1 construct: The BRAF-KIAA1549 fusion mutant was subcloned into pMXs-IRES-Blasticidin (RTV-016, Cell Biolabs, San Diego, CA); No tag given; Q9HCM3 (UPF0606 protein KIAA1549)
The experiment in a line: BaF3 BRAF-KIAA1549 fusion cell proliferation assay (CellTiterGlo, 96 hours). The format is cell-based. To be noted: Table A1. On the procedure:
Retroviral Production: The BRAF-KIAA1549 fusion mutant was subcloned into pMXs-IRES-Blasticidin (RTV-016, Cell Biolabs, San Diego, CA). Retrovirus was produced by transfection of HEK 293T cells with the retroviral BRAF mutant expression vector pMXs-IRES-Blasticidin (RTV-016, Cell Biolabs), pCMV-Gag-Pol vector and pCMV-VSV-G-Envelope vector. Briefly, HEK 293T cells were plated in Poly-D-lysine coated 6-well plate (2.5×10^5 cells per well) and incubated overnight. The next day, retroviral plasmids (1 μg of BRAF-KIAA fusion mutant, 0.32 μg of pCMV-Gag-Pol and 0.165 μg pCMV-VSV-G) were mixed in 300 μL of Optimem (31985, Life Technologies). The mixture was incubated at room temperature for 5 minutes and then added to Optimem containing transfection reagent Lipofectamine (11668, Invitrogen) and incubated for 20 minutes. The mixture was then added dropwise to HEK 293T cells. The next day the medium was replaced with fresh culture medium and retrovirus was harvested at 24 hours.
Generation of BRAF-KIAA1549 fusion stable cell line: BaF3 cells were plated in V-bottom 96 well plate (COSTAR #3894) in 80 μL of RPMI/10% FBS and 0.01 ng/mL mouse IL-3, supplemented with 8 μg/mL polybrene (4×10^4 cells/well). Cells were transduced with 20 μL of BRAF-KIAA1549 fusion viral supernatant by centrifuging for 30 minutes at 1000 rpm. Cells were placed in a 37° C. incubator overnight. Next day 100 μL of RPMI/10% FBS and 0.01 ng/mL mouse IL-3 was added. After 24 hours, 100 μL of cells were transferred to a 24 well plate containing 900 μL of RPM/10% FBS and 15 μg/mL Blasticidin. Contents of the 24 well plate were sampled for cell viability via CellTiterGlo (Promega) over a 2-week period.
Assay for cell proliferation: BaF3 BRAF-KIAA1549 fusion cells were resuspended at 1.5×10^5 c/mL in RPMI containing 10% Heat Inactivated FBS, 1% L-glutamine and dispensed in duplicate (7×10^4 c/well) into 384 well plates. To determine the effect of compound on cell proliferation, BaF3 BRAF-KIAA1549 fusion cells were incubated for 96 hours in the presence of vehicle control (DMSO) or compound at varying concentrations. Inhibition of cell growth was determined by luminescent quantification (Envision by Perkin Elmer) of intracellular ATP content using CellTiterGlo (Promega), according to the protocol provided by the manufacturer. To determine the IC50 values, the vehicle-treated cells were normalized as viable cells and analyzed using the CDD Vault, Collaborative Drug Discovery, Burlingame, CA (the Levenberg-Marquardt algorithm; Levenberg, K., […]; Marquardt, D., 1963).
Tables A1 and A2 assign each compound a code for potency in the BaF3 BRAF-KIAA1549 fusion cell proliferation assay: A, B, C, or D. According to the code, A represents an IC50 value <20 nM; B represents an IC50 value ≥20 nM and <100 nM; C represents an IC50 value ≥100 nM and <500 nM; and D represents an IC50 value ≥500 nM.
On the technique in general: ATP-based viability assays read luminescence as a measure of living cells.
In the case of `CNc1cc2ncc(-c3cc(NC(=O)c4ccnc(C5(F)CC5)c4)ccc3C)cc2cn1` [Compound 18, 2-(1-Fluorocyclopropyl)-N-(4-methyl-3-(7-(methylamino)-1,6-naphthyridin-3-yl)phenyl)isonicotinamide], the concentration for 50% growth inhibition (GI50) was less than 20 nM.
As to `CNc1cc2ncc(-c3cc(NC(=O)c4cccc(N(C)C)c4)cnc3C)cc2cn1` [Compound 19, 3-(Dimethylamino)-N-(6-methyl-5-(7-(methylamino)-1,6-naphthyridin-3-yl)pyridin-3-yl)benzamide], the GI50 was less than 20 nM.
The same measure for `CNc1cc2ncc(-c3cc(NC(=O)c4cc(C(F)(F)F)ccn4)cnc3C)cc2cn1` [Compound 20, N-(6-Methyl-5-(7-(methylamino)-1,6-naphthyridin-3-yl)pyridin-3-yl)-4-(trifluoromethyl)picolinamide]: less than 20 nM; for `CNc1cc2ncc(-c3cc(NC(=O)c4cncc(C(F)(F)F)c4)cnc3C)cc2cn1` [Compound 21, N-(6-Methyl-5-(7-(methylamino)-1,6-naphthyridin-3-yl)pyridin-3-yl)-5-(trifluoromethyl)nicotinamide]: 20 to 100 nM.
For `CNc1cc2ncc(-c3cc(NC(=O)c4cc(C(F)F)ccn4)cnc3C)cc2cn1` [Compound 22, 4-(Difluoromethyl)-N-(6-methyl-5-(7-(methylamino)-1,6-naphthyridin-3-yl)pyridin-3-yl)picolinamide], the concentration for 50% growth inhibition (GI50) lay within 20 to 100 nM.
Compound `CNc1cc2ncc(-c3cc(NC(=O)c4cc(C(C)(F)F)ccn4)cnc3C)cc2cn1` [Compound 23, 4-(1,1-Difluoroethyl)-N-(6-methyl-5-(7-(methylamino)-1,6-naphthyridin-3-yl)pyridin-3-yl)picolinamide] showed a 50% growth inhibitory concentration (GI50) of 20 to 100 nM.
The same measure for `CNc1cc2ncc(-c3cc(NC(=O)c4ccnc(C(C)(C)F)c4)cnc3C)cc2cn1` [Compound 24, 2-(2-Fluoropropan-2-yl)-N-(6-methyl-5-(7-(methylamino)-1,6-naphthyridin-3-yl)pyridin-3-yl)isonicotinamide]: less than 20 nM.
With `CNc1cc2ncc(-c3cc(NC(=O)c4cc(C(F)(F)F)c(C)cn4)cnc3C)cc2cn1` [Compound 25, 5-Methyl-N-(6-methyl-5-(7-(methylamino)-1,6-naphthyridin-3-yl)pyridin-3-yl)-4-(trifluoromethyl)picolinamide], the GI50 was 20 to 100 nM.
As for `CNc1cc2ncc(-c3cc(NC(=O)c4nccc(C(F)(F)F)c4Cl)cnc3C)cc2cn1` [Compound 26, 3-Chloro-N-(6-methyl-5-(7-(methylamino)-1,6-naphthyridin-3-yl)pyridin-3-yl)-4-(trifluoromethyl)picolinamide], the figure is 20 to 100 nM; as for `CNc1cc2ncc(-c3cc(NC(=O)c4ccnc(C(F)(F)F)c4)cnc3C)cc2cn1` [Compound 27, N-(6-Methyl-5-(7-(methylamino)-1,6-naphthyridin-3-yl)pyridin-3-yl)-2-(trifluoromethyl)isonicotinamide], less than 20 nM.
`CNc1cc2ncc(-c3cc(NC(=O)c4ccnc(C(F)F)c4)cnc3C)cc2cn1` [Compound 28, 2-(Difluoromethyl)-N-(6-methyl-5-(7-(methylamino)-1,6-naphthyridin-3-yl)pyridin-3-yl)isonicotinamide] gave a GI50 of 100 to 500 nM.
Take `CNc1cc2ncc(-c3cc(NC(=O)c4ccnc(C(C)(F)F)c4)cnc3C)cc2cn1` [Compound 29, 2-(1,1-Difluoroethyl)-N-(6-methyl-5-(7-(methylamino)-1,6-naphthyridin-3-yl)pyridin-3-yl)isonicotinamide]: the GI50 was less than 20 nM.
As for `CNc1cc2ncc(-c3cc(NC(=O)c4cc(C(C)(C)C#N)ccn4)cnc3C)cc2cn1` [Compound 30, 4-(2-Cyanopropan-2-yl)-N-(6-methyl-5-(7-(methylamino)-1,6-naphthyridin-3-yl)pyridin-3-yl)picolinamide], the figure is 20 to 100 nM; as for `CNc1cc2ncc(-c3cc(NC(=O)c4cc(C5(C#N)CCC5)ccn4)cnc3C)cc2cn1` [Compound 31, 4-(1-Cyanocyclobutyl)-N-(6-methyl-5-(7-(methylamino)-1,6-naphthyridin-3-yl)pyridin-3-yl)picolinamide], 20 to 100 nM; as for `CNc1cc2ncc(-c3cc(NC(=O)c4cc(C5(C#N)CC5)ccn4)cnc3C)cc2cn1` [Compound 32, 4-(1-Cyanocyclopropyl)-N-(6-methyl-5-(7-(methylamino)-1,6-naphthyridin-3-yl)pyridin-3-yl)picolinamide], less than 20 nM.
As for `CNc1cc2ncc(-c3cc(NC(=O)c4ccnc(C5(F)CC5)c4)cnc3C)cc2cn1` [Compound 33, 2-(1-Fluorocyclopropyl)-N-(6-methyl-5-(7-(methylamino)-1,6-naphthyridin-3-yl)pyridin-3-yl)isonicotinamide], the figure is less than 20 nM; as for `CNc1cc2ncc(-c3cc(NC(=O)c4ccnc(C5CC(F)(F)C5)c4)cnc3C)cc2cn1` [Compound 34, 2-(3,3-Difluorocyclobutyl)-N-(6-methyl-5-(7-(methylamino)-1,6-naphthyridin-3-yl)pyridin-3-yl)isonicotinamide], 20 to 100 nM.
The same measure for `CNc1cc2ncc(-c3cc(NC(=O)c4cc(C(C)(C)C#N)ccn4)c(F)cc3Cl)cc2cn1` [Compound 37, N-(4-Chloro-2-fluoro-5-(7-(methylamino)-1,6-naphthyridin-3-yl)phenyl)-4-(2-cyanopropan-2-yl)picolinamide]: 20 to 100 nM; for `CNc1cc2ncc(-c3cc(NC(=O)c4cc(C(C)(C)C#N)ccn4)cc(F)c3C)cc2cn1` [Compound 38, 4-(2-Cyanopropan-2-yl)-N-(3-fluoro-4-methyl-5-(7-(methylamino)-1,6-naphthyridin-3-yl)phenyl)picolinamide]: 20 to 100 nM.
For `CNc1cc2ncc(-c3cc(NC(=O)c4cc(C(C)(C)C#N)ccn4)cc(F)c3F)cc2cn1` [Compound 39, 4-(2-Cyanopropan-2-yl)-N-(3,4-difluoro-5-(7-(methylamino)-1,6-naphthyridin-3-yl)phenyl)picolinamide], the GI50 lay in the range of 20 to 100 nM.
The same measure for `CNc1cc2ncc(-c3cc(NC(=O)c4cc(C(C)(C)C#N)ccn4)ccc3F)cc2cn1` [Compound 40, 4-(2-cyanopropan-2-yl)-N-(4-fluoro-3-(7-(methylamino)-1,6-naphthyridin-3-yl)phenyl)picolinamide]: 20 to 100 nM; for `CNc1cc2ncc(-c3cc(NC(=O)c4cc(C(C)(C)C#N)ccn4)ccc3Cl)cc2cn1` [Compound 41, N-(4-Chloro-3-(7-(methylamino)-1,6-naphthyridin-3-yl)phenyl)-4-(2-cyanopropan-2-yl)picolinamide]: 20 to 100 nM; for `CNc1cc2ncc(-c3cc(NC(=O)c4cc(C(C)(C)C#N)ccn4)c(F)cc3C)cc2cn1` [Compound 42, 4-(2-Cyanopropan-2-yl)-N-(2-fluoro-4-methyl-5-(7-(methylamino)-1,6-naphthyridin-3-yl)phenyl)picolinamide]: 20 to 100 nM.
With `CNc1cc2ncc(-c3cc(NC(=O)c4cc(C(C)(C)C#N)ccn4)c(F)cc3F)cc2cn1` [Compound 43, 4-(2-Cyanopropan-2-yl)-N-(2,4-difluoro-5-(7-(methylamino)-1,6-naphthyridin-3-yl)phenyl)picolinamide], the GI50 was 20 to 100 nM.
The same measure for `CNc1cc2ncc(-c3cc(NC(=O)c4cc(C(C)(C)C#N)ccn4)cc(F)c3Cl)cc2cn1` [Compound 44, N-(4-chloro-3-fluoro-5-(7-(methylamino)-1,6-naphthyridin-3-yl)phenyl)-4-(2-cyanopropan-2-yl)picolinamide]: 20 to 100 nM; for `CNc1cc2ncc(-c3ccc(F)c(NC(=O)c4cc(C(C)(C)C#N)ccn4)c3)cc2cn1` [Compound 45, 4-(2-Cyanopropan-2-yl)-N-(2-fluoro-5-(7-(methylamino)-1,6-naphthyridin-3-yl)phenyl)picolinamide]: 100 to 500 nM.
